Measurements as given in patent US11446384B2, “Agent for targeting heart comprising tannic acid” (Korea Research Institute of Chemical Technology, priority 2018, dated 2022).

Assays:
[1] = system: myocardial ischemia reperfusion (MIR); assay: In vivo hemodynamic evaluation of left ventricular function in MIR animal model; design: species or system rats (SD rats); conditions: MIR rats; for EDP / EDV / ESP / ESV / Ea / HR / SW / Tau: 5 μg i.v., 28 days
Protocol: Particularly, rats (SD rats, 8 weeks old, male, 230-270 g) were anesthetized with a mixture of isoflurane (3 cc min^-1), Rompun, xylazine (1 mg kg^-1) and oxygen in an induction chamber. Then, the rats were intubated and a mixture of isoflurane and oxygen was allowed to flow at a rate of 1 cc min^-1. The rat heart was exposed through left thoracotomy, followed by occulusion for 10 minutes. The suture line was quickly loosened to resume blood flow through the left anterior descending artery (LAD). […] 28 days after the injection, in vivo hemodynamic evaluation was performed to investigate the left ventricular function using […]500 (Transonic, USA) outputting data to LabScribe data collection software (iWorx/CB Sciences, USA).

[2] = system: myocardial ischemia reperfusion (MIR); assay: Infarct size (TTC staining) in MIR animal model after intravenous bFGF; format: in vivo, rats (SD rats); conditions: MIR rats, 28 days after injection
Protocol: Particularly, rats (SD rats, 8 weeks old, male, 230-270 g) were anesthetized with a mixture of isoflurane (3 cc min^-1), Rompun, xylazine (1 mg kg^-1) and oxygen in an induction chamber. Then, the rats were intubated and a mixture of isoflurane and oxygen was allowed to flow at a rate of 1 cc min^-1. The rat heart was exposed through left thoracotomy, followed by occulusion for 10 minutes. The suture line was quickly loosened to resume blood flow through the left anterior descending artery (LAD). […] Upon completion of the hemodynamic evaluation, the heart was separated and immersed in warm PBS ( 37° C.) to eliminate blood residues. Then, the heart was quickly frozen at -20° C., and the frozen heart was sliced lengthwise approximately 2 mm away the apex. The slice was placed on a cell culture dish, which was treated with 1% TTC (triphenyltetrazolium chloride) dissolved in PBS at 37° C. for 15 minutes. After staining, the heart slice was photographed with a scanner. Then, live tissues stained with red and necrotic tissues non-stained and thus presented as white were distinguished. The size of the infarct area was measured digitally using ImageJ software, and the results are presented as %.

[3] = Turbidimetry binding analysis of TA and heparin sulfate; conditions: HS 0.24 mg/mL, TA 17 mg/mL, 1:1
Protocol: (§1) For turbidity analysis, each solution of elastin, type I collagen, HS and HA was prepared by diluting them in PBS at the concentration of 0.24 mg/mL. TA (17 mg/mL) was added to each solution at the volume ratio of 1:1, followed by mixing vigorously. Turbidity was measured at 600 nm using UV/vis spectrometer (HP8453, Hewlett-Packard, USA).

type I collagen [4] = target: T1, type I collagen (Homo sapiens, UniProt P02452+P08123); assay: Turbidimetry binding analysis of TA and type I collagen; conditions: type I collagen 0.24 mg/mL, TA 17 mg/mL, 1:1
Protocol: as §1

elastin [5] = target: T2, elastin (Homo sapiens, UniProt P15502); assay: ITC binding analysis of TA and elastin
T2 sequence (P15502 27-786): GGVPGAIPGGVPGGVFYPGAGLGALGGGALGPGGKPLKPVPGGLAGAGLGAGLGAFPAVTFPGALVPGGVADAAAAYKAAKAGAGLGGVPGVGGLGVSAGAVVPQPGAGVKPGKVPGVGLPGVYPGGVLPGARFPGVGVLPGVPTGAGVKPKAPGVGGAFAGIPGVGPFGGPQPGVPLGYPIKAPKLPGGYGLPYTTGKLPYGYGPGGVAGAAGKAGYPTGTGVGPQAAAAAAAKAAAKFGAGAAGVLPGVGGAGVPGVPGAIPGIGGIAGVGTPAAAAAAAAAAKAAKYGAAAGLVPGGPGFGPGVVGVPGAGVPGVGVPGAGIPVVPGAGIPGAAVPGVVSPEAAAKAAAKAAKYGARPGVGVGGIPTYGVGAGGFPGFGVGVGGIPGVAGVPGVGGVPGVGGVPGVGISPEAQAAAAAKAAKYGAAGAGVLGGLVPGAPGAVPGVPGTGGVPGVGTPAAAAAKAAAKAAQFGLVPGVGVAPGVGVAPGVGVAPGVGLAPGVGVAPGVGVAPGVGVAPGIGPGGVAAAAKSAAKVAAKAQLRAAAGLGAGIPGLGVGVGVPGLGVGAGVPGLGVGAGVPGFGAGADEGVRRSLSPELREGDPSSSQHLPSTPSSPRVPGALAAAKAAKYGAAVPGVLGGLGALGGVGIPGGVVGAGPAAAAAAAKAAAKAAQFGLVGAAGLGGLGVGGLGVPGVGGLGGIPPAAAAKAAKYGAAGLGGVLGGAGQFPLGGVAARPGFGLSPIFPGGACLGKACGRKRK
Protocol: Elastin (210 μg/mL) and TA (2.5 mg/mL) solutions were used for ITC analysis. Elastin was placed in a sample cell. The TA solution was placed in a syringe, which was injected to the elastin in the sample cell (250 μl) (50 sequential injections, 5 μl per injection) for titration (with stirring at 350 rpm). Time interval was set at 180 seconds for subsequent injection, and raw data was processed using Microcal Origin (Microcal Software, Northampton, USA).

[6] = Turbidimetry binding analysis of TA and hyaluronic acid; conditions: HA 0.24 mg/mL, TA 17 mg/mL, 1:1
Protocol: as §1

elastin [7] = target: T2, elastin; assay: SPR binding analysis of TA and elastin; conditions: surface adsorbed with elastin, TA 2 mg/mL
Protocol: (§2) For SPR analysis, each solution of elastin, type I collagen (10 μg/mL) and TA (2 mg/mL) was prepared by diluting them in PBS (pH 7.3). All the solutions were filtered with 0.2 μm microfilter (Millipore, USA). Each protein (elastin or type I collagen) was adhered on Biacore gold (Au) sensor chip for 600 seconds. The chip was washed for 10 minutes to eliminate such samples attached weakly thereon. SPR analysis was performed at the flow rate of 10 μl/min using PBS as a flow buffer.

elastin [8] = target: T2, elastin; assay: Turbidimetry binding analysis of TA and elastin; conditions: elastin 0.24 mg/mL, TA 17 mg/mL, 1:1
Protocol: as §1

type I collagen [9] = target: T1, type I collagen; assay: SPR binding analysis of TA and type I collagen; conditions: surface adsorbed with collagen, TA 2 mg/mL
Protocol: as §2

[10] = Size of tannylated SP (particle size analyzer); format: physicochemical; conditions: [SP]/[TA] ratio of 20 or 10
Protocol: The mixed solutions with the [SP]/[TA] ratios of 20, 10, 5, 1 and 0.5 prepared to produce tannylated SP in Example 2 were observed by naked eye. Then, the size of tannylated SP ([SP]/[TA] ratio=20 and 10, volume=1 mL) was analyzed using a particle size analyzer (Zetasizer nano-ZS, Malvern instrument, UK).

[11] = 5 μg i.v., non-treated control 51%

T1 sequence (P02452 162-1218 limits assumed): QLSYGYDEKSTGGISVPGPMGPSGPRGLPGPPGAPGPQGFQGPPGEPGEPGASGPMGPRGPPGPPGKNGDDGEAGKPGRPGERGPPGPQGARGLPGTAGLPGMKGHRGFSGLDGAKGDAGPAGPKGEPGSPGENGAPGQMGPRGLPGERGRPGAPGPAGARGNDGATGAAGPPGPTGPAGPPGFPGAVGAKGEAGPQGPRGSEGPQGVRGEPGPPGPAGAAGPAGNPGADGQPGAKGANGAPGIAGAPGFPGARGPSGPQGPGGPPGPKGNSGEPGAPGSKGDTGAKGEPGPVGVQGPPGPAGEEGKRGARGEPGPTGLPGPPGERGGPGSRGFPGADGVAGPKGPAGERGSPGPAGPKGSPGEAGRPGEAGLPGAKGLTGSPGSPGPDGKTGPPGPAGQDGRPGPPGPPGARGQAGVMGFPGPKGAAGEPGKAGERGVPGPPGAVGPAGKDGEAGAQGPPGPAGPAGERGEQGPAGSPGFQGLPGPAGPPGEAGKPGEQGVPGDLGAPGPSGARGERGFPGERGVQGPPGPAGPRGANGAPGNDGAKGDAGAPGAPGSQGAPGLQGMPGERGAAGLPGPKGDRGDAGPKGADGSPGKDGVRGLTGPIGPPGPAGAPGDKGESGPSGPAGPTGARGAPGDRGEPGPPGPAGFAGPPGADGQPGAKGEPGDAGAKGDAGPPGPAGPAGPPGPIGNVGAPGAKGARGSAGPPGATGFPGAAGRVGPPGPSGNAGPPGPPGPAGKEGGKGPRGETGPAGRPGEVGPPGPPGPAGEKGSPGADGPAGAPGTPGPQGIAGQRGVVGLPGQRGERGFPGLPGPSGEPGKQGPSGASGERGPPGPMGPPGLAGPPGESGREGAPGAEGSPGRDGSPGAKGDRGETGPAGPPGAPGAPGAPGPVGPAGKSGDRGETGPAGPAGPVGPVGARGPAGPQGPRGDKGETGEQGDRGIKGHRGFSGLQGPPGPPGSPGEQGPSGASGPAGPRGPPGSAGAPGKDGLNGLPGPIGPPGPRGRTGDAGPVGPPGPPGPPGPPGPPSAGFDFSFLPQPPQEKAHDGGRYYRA
T1 sequence (P08123 80-1119 limits assumed): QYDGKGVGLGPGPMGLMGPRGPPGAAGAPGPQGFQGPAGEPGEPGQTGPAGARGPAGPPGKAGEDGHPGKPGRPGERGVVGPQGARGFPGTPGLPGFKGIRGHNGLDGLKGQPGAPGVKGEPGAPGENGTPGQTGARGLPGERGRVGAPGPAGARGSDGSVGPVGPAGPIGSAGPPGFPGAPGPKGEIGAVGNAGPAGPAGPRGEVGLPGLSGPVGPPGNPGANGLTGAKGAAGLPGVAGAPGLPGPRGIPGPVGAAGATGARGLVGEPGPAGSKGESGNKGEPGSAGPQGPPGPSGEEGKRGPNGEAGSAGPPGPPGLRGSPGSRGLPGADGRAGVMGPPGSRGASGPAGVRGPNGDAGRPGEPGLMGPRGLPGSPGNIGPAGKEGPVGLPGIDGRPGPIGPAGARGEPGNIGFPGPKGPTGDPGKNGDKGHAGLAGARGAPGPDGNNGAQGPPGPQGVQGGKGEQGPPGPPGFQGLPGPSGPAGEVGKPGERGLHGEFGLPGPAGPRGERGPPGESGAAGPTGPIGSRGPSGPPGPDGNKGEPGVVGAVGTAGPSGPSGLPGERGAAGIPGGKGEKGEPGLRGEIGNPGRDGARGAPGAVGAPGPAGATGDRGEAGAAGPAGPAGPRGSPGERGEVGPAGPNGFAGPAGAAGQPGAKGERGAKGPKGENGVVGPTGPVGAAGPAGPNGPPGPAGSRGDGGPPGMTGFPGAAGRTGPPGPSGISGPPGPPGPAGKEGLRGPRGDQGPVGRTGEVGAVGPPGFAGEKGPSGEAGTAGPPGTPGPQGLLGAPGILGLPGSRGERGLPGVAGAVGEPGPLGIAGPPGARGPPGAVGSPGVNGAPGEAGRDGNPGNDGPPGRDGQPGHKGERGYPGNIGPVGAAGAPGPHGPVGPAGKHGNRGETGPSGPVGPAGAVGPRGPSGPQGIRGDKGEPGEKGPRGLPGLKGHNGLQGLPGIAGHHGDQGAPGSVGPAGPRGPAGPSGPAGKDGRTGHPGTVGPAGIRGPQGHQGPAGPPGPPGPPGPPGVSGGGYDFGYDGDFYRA

Row | Compound | EDP [1] [mmHg] | EDV [1] [µL] | ESP [1] [mmHg] | ESV [1] [µL] | Ea [1] [mmHg/μL] | HR [1] [bpm] | SW [1] [mmHg · mL · kg] | Tau [1] [ms] | infarct size [2, 11] | also measured
1 | tannylated bFGF: bFGF (SEQ ID NO: 1) mixed with TA solution, stoichiometric molar ratio [TA]/[bFGF] of 143 | 9.8 ± 1.6 | 295.9 ± 23.3 | 103.8 ± 4.6 | 133.9 ± 19.5 | 0.77 ± 0.14 | 322.7 ± 18.0 | 3.00 ± 0.53 | 11.7 ± 1.1 | approximately 16% | hemodynamic functional values (left ventricular pressure, stroke volume, cardiac output, ventricular contractility index) ([1]; i.v., 28 days after injection, versus sham group): recovered all the hemodynamic functional values
2 | O=C(OC[C@H]1O[C@@H](OC(=O)c2cc(O)c(O)c(OC(=O)c3cc(O)c(O)c(O)c3)c2)[C@H](OC(=O)c2cc(O)c(O)c(OC(=O)c3cc(O)c(O)c(O)c3)c2)[C@@H](OC(=O)c2cc(O)c(O)c(OC(=O)c3cc(O)c(O)c(O)c3)c2)[C@@H]1OC(=O)c1cc(O)c(O)c(OC(=O)c2cc(O)c(O)c(O)c2)c1)c1cc(O)c(O)c(OC(=O)c2cc(O)c(O)c(O)c2)c1 [tannic acid] | – | – | – | – | – | – | – | – | – | turbidity change of HS solution after addition of TA [3]: no turbidity change was observed; turbidity (A600) of collagen solution after addition of TA (type I collagen [4]): 0.173±0.022; [TA]/[elastin] ratio of first step (TA conjugated with elastin inter-molecularly) (elastin [5]; ITC): up to 20; [TA]/[elastin] ratio of second step (inter-TA/elastin complexes conjugated each other) (elastin [5]; ITC): ≥ 30; ITC thermodynamics of binding between TA and elastin (elastin [5]; elastin 210 μg/mL, TA […]): exothermic interaction; turbidity change of HA solution after addition of TA [6]: no turbidity change was observed; SPR ΔRU value (elastin [7]): 1319; turbidity (A600) of elastin solution after addition of TA (elastin [8]): 1.219±0.022; SPR ΔRU value (type I collagen [9]): 793
3 | bFGF: basic fibroblast growth factor, SEQ ID NO: 1 | 8.5 ± 0.9 | 365.3 ± 27.5 | 85.3 ± 1.7 | 254.5 ± 13.8 | 0.86 ± 0.12 | 316.5 ± 12.9 | 1.51 ± 0.14 | 11.7 ± 0.5 | 31% | infarct size ([2]; 25 μg i.v.): not much different from when 5 μg of bFGF was administered
4 | tannylated SP: substance P (SEQ ID NO: 2, RPKPQQFFGLM) mixed with tannic acid solution at [SP]/[TA] ratios 0.5-20 | – | – | – | – | – | – | – | – | – | size of complex [10]: up to 1 μm
